Like-named read-outs stand apart in the source and are kept apart here.
Columns and labels:
[1] = tested on: human plasma; format: biochemical; conditions: for PTT (effect in words): in vitro
[2] = tested on: thrombus formation in the jugular vein; experiment: I 125 fibrinogen technique, damaged jugular vein (venous thrombosis), continuous infusion; format: in vivo, rabbits
Experimental: The anti venous thrombotic effect of sodium bisulfite is evaluated in rabbits by using I ^125 fibrinogen technique as described in an article in "Archives of Surgery" Vol. 104, pg. 152 (1972).
The rabbit was continuously infused with aqueous sodium bisulfite solution at the rate of […]. (5.154 gram per hour) (animal body weight 2.3 kg) for a time of five hours. After 5 hours, the animal was sacrificed and the radioactive fibrinogen accumulated in the damaged jugular vein was determined. The radioactivity on the contra-lateral (undamaged) jugular vein was also determined to serve as a control. Concurrently, another rabbit had experienced the same procedure but received only a standard sodium chloride solution as a control. The rabbit from the normal saline solution has seven times as much radioactivity as his counterpart infused with sodium bisulfite.
Two jugular veins on a normal, healthy rabbit are exposed and one of the veins is systematically damaged by clamping in two longitudinally spaced places. The rabbit is then continuously infused with aqueous sodium formaldehyde bisulfite at the rate of […] (5.154 gram per hour) (animal body weight 2.3 kg). The rabbit is then injected with fibrinogen labeled with I^125. After 5 hours, the damaged jugular vein is evaluated for radioacive count with a Geiger counter.
This iodine 125 evaluation technique is described by Kakkar in Archieves of Surgery, Vol. 104, pg. 152 (1972) and by Kelton, J.G. et al, Journal of Clinical Investigation, Vol. 62, pgs. 892-895, (1978). […] Other rabbits, similarly evaluated, died, apparently because of overdose by the infustion technique.

[3] = tested on: human plasma; format: biochemical; conditions: for PT (effect in words): in vitro, 0.5 mg/ml
[4] = molecular target: T1, FIBRINOGEN (Homo sapiens, UniProt P02671+P02675+P02679); experiment: Coagulation factor assay (Biggs): fibrinogen; format: biochemical; conditions: mean of two experiments; control 205
T1 construct: from tissue; host or cells: human plasma
T1 sequence (P02671 20-629 limits assumed): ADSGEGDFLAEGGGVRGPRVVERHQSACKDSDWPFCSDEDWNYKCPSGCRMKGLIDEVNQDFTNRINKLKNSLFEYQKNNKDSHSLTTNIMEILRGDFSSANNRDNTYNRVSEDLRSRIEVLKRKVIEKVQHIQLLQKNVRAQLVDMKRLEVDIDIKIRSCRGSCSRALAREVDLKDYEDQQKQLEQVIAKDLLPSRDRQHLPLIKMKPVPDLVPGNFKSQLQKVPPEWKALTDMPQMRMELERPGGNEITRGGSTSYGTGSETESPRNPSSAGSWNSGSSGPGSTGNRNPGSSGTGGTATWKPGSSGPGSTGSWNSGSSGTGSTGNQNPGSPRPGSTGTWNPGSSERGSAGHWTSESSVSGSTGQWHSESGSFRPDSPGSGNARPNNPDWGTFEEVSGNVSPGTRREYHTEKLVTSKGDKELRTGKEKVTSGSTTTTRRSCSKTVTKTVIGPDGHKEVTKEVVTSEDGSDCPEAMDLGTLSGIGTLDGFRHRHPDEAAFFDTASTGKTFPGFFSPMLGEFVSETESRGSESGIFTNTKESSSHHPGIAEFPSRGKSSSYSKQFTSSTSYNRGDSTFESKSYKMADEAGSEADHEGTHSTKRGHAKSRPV
T1 sequence (P02675 31-491): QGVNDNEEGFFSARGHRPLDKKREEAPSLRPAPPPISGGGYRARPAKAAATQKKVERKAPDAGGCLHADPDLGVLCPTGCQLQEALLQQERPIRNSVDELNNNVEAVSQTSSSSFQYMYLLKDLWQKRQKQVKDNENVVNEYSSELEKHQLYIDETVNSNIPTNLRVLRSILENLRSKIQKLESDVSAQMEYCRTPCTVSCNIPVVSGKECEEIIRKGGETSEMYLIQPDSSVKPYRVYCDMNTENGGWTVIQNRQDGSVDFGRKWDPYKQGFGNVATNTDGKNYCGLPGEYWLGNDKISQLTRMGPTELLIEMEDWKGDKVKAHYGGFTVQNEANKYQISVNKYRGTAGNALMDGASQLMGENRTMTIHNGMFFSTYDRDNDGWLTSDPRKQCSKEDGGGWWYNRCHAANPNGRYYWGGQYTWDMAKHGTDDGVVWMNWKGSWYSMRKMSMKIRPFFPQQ
T1 sequence (P02679 27-453): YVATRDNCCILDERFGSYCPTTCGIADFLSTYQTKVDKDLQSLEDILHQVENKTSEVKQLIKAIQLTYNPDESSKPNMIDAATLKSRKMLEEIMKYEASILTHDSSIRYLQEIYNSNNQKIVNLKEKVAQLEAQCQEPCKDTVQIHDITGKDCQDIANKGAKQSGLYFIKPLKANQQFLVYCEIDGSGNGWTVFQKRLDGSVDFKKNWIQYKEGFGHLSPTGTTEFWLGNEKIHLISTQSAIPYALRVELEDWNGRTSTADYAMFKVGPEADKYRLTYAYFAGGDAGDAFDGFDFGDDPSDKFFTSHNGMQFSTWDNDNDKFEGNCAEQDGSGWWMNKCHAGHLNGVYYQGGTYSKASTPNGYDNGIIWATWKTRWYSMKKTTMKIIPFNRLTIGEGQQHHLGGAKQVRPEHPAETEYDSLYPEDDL
Experimental: (§1) The effect of U.S.P. grade sodium bisulfite on blood coagulation factors is evaluated by standard procedures (Biggs) and the results are shown in Table III below.
(§2) References for PT, PTT, and assays of all the coagulation factors can be found in a standard textbook, entitled "Human Blood Coagulation, Haemostasis and Thrombosis", edited by Rosemary Biggs, published by Blackwell Scientific Publications, Oxford, England (2nd edition), pages 670-705, 1976.

[5] = tested on: rabbit plasma; experiment: Blood coagulation tests (PT, PTT, coagulation factors) in vitro; format: biochemical; conditions: rabbit plasma in vitro, 0.5 mg/ml
Description: (§3) The alkali metalbisulfites, sodium and potassium, and ammonium bisulfite are found to prolong PT and PTT in a dose-related fashion.
The Solution I is found to prolong PT and PTT in a dose related fashion. […] The agent is active in inhibiting various coagulation factors, including factors VII, IX, X, XI, and XII.

[6] = tested on: rat plasma; experiment: as above; format: biochemical; conditions: rat plasma in vitro, 0.5 mg/ml
Description: as §3

[7] = tested on: rabbit platelet rich plasma; experiment: Platelet aggregation in platelet rich plasma, platelet aggregometer (technique of Born); format: cell-based; conditions: platelet rich plasma from rabbit
Experimental: (§4) Platelet rich plasma from rabbit and men was prepared by the centrugation technique referenced in Example 13. Using ADP (adosine diphosphate) as a stimulus rapid aggregation of platelets occurred. […] This procedure is described in the article by Born in Nature, Vol. 194, pgs. 927-929 (1962).
as §4, with “rabbits” for “rabbit”, “diphosphate) arachidonic acid” for “diphosphate)”, “stimulus,” for “stimulus”, “Born,” for “Born in”

[8] = tested on: blood; experiment: PT and PTT of blood after oral gavage; format: in vivo, rabbit; conditions: orally by gavage about 50 mg/kg in two spaced doses (solution of Example X); after 1 day
[9] = tested on: thrombus; experiment: Antithrombotic effect in rabbit (Kelton et al); format: in vivo; conditions: 50 mg/kg
Description: Evaluation of the antithrombotic effect of sodium formaldehyde bisulfite was caried out on a rabbit as described in Kelton et al: "Thrombogenic Effect of High Dose Aspirin in Rabbits", Journal of Clinical Investigation", Volume 62, pages 892-895, 1978.

[10] = tested on: human platelet rich plasma; experiment: Platelet aggregation in platelet rich plasma, platelet aggregometer (technique of Born); format: cell-based; conditions: platelet rich plasma from men
Description: A present preference for purposes of evaluating an - antithrombotic effect is to withdraw samples of blood from a patient undergoing treatment and to measure platelet aggregation. One method is described in the paper by Born in Nature 194, pp. 927-929 (1962), which may be used for this purpose if desired.
That sodium bisulfite is an antiplatelet aggregatory agent is shown by using a platelet aggregometer based on the technique of Born (above cited).
as §4
as §4, with “rabbits” for “rabbit”, “diphosphate) arachidonic acid” for “diphosphate)”, “stimulus,” for “stimulus”, “Born,” for “Born in”

[11] = tested on: platelet rich plasma; experiment: Platelet aggregation in platelet rich plasma from injected rabbit (ex vivo); conditions: injected with about 72 mg/kg of body weight; blood sample after 5 hours
Experimental: (§5) A rabbit is injected with about +72 mg/kg of body weight of triethyl amine bisulfite. After a period of 5 hours, a blood sample was withdrawn and centrifuged at 1000 r.p.m. (220 g) for 10 minutes to give a platelet rich plasma. […] It is concluded that triethyl amine bisulfite is an agent which inhibits thrombotic condition formation in vivo.
as §5, with “72” for “+72”, “sodium formaldehyde” for “triethyl amine”, “minuts” for “minutes”, “thrombus” for “thrombotic condition”

[12] = molecular target: T2, F IX (Homo sapiens, UniProt P00740); experiment: Coagulation factor assay (Biggs): Factor IX; format: biochemical; conditions: single experiment; control 50
T2 construct: from tissue; host or cells: human plasma
T2 sequence (P00740 47-461): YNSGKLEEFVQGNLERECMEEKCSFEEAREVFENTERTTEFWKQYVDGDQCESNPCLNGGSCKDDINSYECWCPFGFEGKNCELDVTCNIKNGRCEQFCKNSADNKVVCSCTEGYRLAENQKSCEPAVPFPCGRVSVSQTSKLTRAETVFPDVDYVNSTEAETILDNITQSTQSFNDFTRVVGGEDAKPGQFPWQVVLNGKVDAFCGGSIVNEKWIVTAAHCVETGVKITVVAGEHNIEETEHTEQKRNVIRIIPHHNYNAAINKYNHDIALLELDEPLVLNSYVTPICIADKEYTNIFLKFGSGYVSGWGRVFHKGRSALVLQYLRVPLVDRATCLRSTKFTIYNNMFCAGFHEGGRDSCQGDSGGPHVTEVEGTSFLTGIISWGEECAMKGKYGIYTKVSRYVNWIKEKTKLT
Experimental: as §1, §2

[13] = molecular target: T1, FIBRINOGEN; experiment: Coagulation factor assay (Biggs): fibrinogen; format: biochemical; conditions: mean of 2 experiments; control 205
[14] = tested on: platelet rich plasma; experiment: Platelet aggregation in platelet rich plasma, ADP stimulus (Example 25); format: cell-based; conditions: plasma first treated with the compound
Description: Plasma was centrifuged at 1000 r.p.m. (200 g) to prepare a platelet rich plasma. Using adosine diphosphate (ADP) as a stimulous, rapid aggregation of platelets in the plasma was efected. On the other hand, when such plasma is first treatd with (a) tetramethyl ammonium sulfite, (b) tetramethyl ammonium bisulfite, and then (c) tetrabutyl

[15] = continuous infusion for five hours
[16] = amine bisulfites, control plasma 12.8 / 13.1

## CCN(CC)CC.O=S(O)O [TRIETHYL AMINE SULFITE, triethyl amine sulfite]
[1]
  MEAN LSD (PTT): 60.6 ± 4.1 s
  PTT(Sec) […]. 1: 59.2 s
  PTT(Sec) […]. 2: 65.1 s
  PTT(Sec) […]. 3: 54.9 s
  PTT(Sec) […]. 4: 59.0 s
  PTT(Sec) […].5: 64.0 s
[2]; [15]
  thrombus formation in the jugular vein (conclusion in words): definite positive antithrombotic effect
[3]
  MEAN LSD (PT): 16.9 ± 1.1 s
  PT(Sec) […]. 1: 17.0 s
  PT(Sec) […]. 2: 18.5 s
  PT(Sec) […]. 3: 15.4 s
  PT(Sec) […]. 4: 16.6 s
  PT(Sec) […].5: 16.8 s
[4]
  Fibrinogen (%): 170%

## ammonium bisulfite
[5]
  PT and PTT (effect in words): significantly prolong
[1]; 0.5 mg/ml
  PTT (effect in words): significantly prolong
[3]
  PT (effect in words): significantly prolong
[6]
  PT and PTT (effect in words): significantly prolong

## O=S(=O)(O)CO [Sodium formaldehyde bisulfite]
[7]
  platelet aggregation, ADP (adosine diphosphate) as a stimulus: strong inhibition of platelet aggregation
[1]; 0.5 mg/ml, two different days, control 42.6 / 42.10
  PTT: 56.30 s
[1]; 0.01 Molar, control 33.4
  PTT: 54.6
[1]; coded agents 0.5mg/ml, […], control 43.38
  PTT: 58.60 s
[1]; control 38.2 (50.5 for Sodium formaldehyde Bisulfite)
  PTT REPLICATIONS I: 63.5
[1]; 0.5 mg/ml
  PTT (effect in words): effective
[2]; continuous infusion
  mortality of infused rabbits: died
[2]; [15]
  radioactivity (I 125 fibrinogen) in damaged jugular vein of saline control rabbit relative to treated rabbit: more radioactivity
  thrombus formation in the jugular vein (conclusion in words): definite positive effect of decreasing thrombus formation
[3]
  PT: 19.68 s
  PT (effect in words): effective
[3]; 0.01 Molar, control 12.5
  PT: 24.4
[3]; coded agents 0.5mg/ml, […], control 12.92
  PT: 19.50 s
[3]; control 13.1 (14.1 for Sodium formaldehyde Bisulfite)
  PT REPLICATIONS I: 20.5
[8]
  PT and PTT values of the animal's blood compared with untreated control rabbit: lengthened
[9]
  disappearance of the thrombus compared with a control animal: the thrombus disappeared more rapidly
[10]
  platelet aggregation, ADP (adosine diphosphate) as a stimulus: strong inhibition of platelet aggregation
[11]
  aggregation of platelets in comparison with an untreated rabbit: markedly decreased

## C[N+](C)(C)C [Tetramethyl-ammonium sulfite]
[12]
  Factor IX (%): 20%
[13]
  Fibrinogen (%): 175%
[14]
  platelet aggregation, adosine diphosphate (ADP) as a stimulous: inhibited

## OCCNCCO [DIETHANOL AMINE]
[1]
  PTT REPLICATIONS 2: 58.0
[1]; amine bisulfites, control plasma 37.5 / 38.2
  PTT REPLICATIONS 1: 62.6
[1]; amine bisulfites, control plasma 37.8 / 39.2
  PTT REPLICATIONS 3: 60.6
[2]; [15]
  thrombus formation in the jugular vein (conclusion in words): definite positive antithrombotic effect
[3]; [16]
  PT REPLICATIONS 1: 20.6
  PT REPLICATIONS 2: 19.8
[3]; amine bisulfites, control plasma 13.1 / 13.0
  PT REPLICATIONS 3: 19.7

## potassium bisulfite
[5]
  PT and PTT (effect in words): significantly prolong
[1]; 0.5 mg/ml
  PTT (effect in words): significantly prolong
[3]
  PT (effect in words): significantly prolong
[6]
  PT and PTT (effect in words): significantly prolong

— patent EP0043274A2, “Antithrombotic treatment” (priority 1980, dated 1982)
